Test results from publication PMC9086285, “Catalytic Features and Thermal Adaptation Mechanisms of a Deep Sea Bacterial Cutinase-Type Poly(Ethylene Terephthalate) Hydrolase” (Frontiers in Bioengineering and Biotechnology, 2022).

Columns and labels:
IsPETase = target: T1, IsPETase (Pseudideonella sakaiensis, UniProt A0A0K8P6T7); assay: inhibition of mp-PET hydrolysis, HPLC of products; format: biochemical; details: 1 mM MHET, mp-PET substrate, 40°C, pH 8.5, 10 mM CaCl2, 72 h; product inhibition
T1 construct: gene ISF6_4831; purified enzyme; expression construct not described
T1 sequence (A0A0K8P6T7 28-290): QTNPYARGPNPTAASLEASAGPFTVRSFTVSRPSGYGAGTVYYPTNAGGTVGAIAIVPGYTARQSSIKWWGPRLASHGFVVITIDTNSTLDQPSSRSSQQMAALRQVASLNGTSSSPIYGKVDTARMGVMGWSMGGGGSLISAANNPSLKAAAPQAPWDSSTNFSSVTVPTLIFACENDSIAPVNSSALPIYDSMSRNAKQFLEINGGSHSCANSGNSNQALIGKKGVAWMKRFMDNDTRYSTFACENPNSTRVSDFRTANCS

ICCG = target: T2, ICCG (unidentified prokaryotic organism, UniProt G9BY57, Y127G/D238C/F243I/S283C); assay: inhibition of mp-PET hydrolysis, HPLC of products; format: biochemical; details: 1 mM MHET, mp-PET substrate, 40°C, pH 8.5, 10 mM CaCl2, 72 h; product inhibition
T2 construct: quadruple variant of LCC; only D238C/S283C given, the other two changes (F243I, Y127G) known from Tournier et al. 2020; expression construct not described; PDB 6THT given as the ICCG structure used for modelling
T2 sequence (G9BY57 36-293 Y127G/D238C/F243I/S283C): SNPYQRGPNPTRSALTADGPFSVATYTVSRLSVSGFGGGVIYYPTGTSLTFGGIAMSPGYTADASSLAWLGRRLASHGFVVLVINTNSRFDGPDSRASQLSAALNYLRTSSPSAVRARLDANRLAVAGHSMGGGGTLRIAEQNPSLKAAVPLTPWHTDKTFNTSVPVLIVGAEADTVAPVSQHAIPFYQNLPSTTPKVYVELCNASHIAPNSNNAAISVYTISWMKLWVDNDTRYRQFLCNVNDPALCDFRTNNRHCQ

`O=C(O)c1ccc(C(=O)OCCO)cc1` [MHET] was tested, and the “inhibition at 1 mM” value (IsPETase) was “in the presence of MHET, significant inhibitory effects were detected toward IsPETase and ICCG” and the “inhibition at 1 mM” value (ICCG) was “in the presence of MHET, significant inhibitory effects were detected toward IsPETase and ICCG”.
